Experimental data reported in US11944622B2 (Annapurna Bio, Inc., priority 2018, dated 2024).

What follows are compounds tested against T1, APJ Receptor (Homo sapiens, UniProt P35414) (assay: APJ cAMP assay (DiscoverX enzyme fragment complementation; inhibition of forskolin-stimulated cAMP)). Conditions: CHO-K1 cell line stably expressing the APJ Receptor; EC80 forskolin; 30 minutes at 37° C.; read-out: Potency Range (APJ cAMP EC50).
T1 sequence (P35414 1-380): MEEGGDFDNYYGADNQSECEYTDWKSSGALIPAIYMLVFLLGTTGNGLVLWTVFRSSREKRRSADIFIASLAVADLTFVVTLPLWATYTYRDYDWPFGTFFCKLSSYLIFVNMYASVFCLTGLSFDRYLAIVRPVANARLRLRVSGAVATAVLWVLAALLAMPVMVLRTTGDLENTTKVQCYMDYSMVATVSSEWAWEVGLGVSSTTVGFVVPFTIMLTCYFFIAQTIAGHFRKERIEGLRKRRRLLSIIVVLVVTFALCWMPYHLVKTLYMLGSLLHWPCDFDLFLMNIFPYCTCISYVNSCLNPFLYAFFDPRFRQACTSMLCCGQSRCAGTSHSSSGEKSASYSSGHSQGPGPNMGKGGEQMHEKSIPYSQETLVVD
Assay type: cell-based
Text: Activation of APJ receptor is known to inhibit forskolin-stimulated cyclic AMP (cAMP) production in cells in a pertussis toxin-sensitive manner which indicates primary coupling to the GαI subunit of the G protein heterotrimeric complex. In addition to signaling through G protein and inhibition of cAMP, APJ receptor activation also results in β-arrestin recruitment, receptor internalization and activation of extracellular-regulated kinases (ERKs).
In order to optimize functional activity directed toward Gi coupling we utilized a CHO-K 1 cell line developed by DiscoverX stably expressing the APJ Receptor. Cells expressing APJR receptor were plated in a 384-well microtiter plates and incubated overnight at 37° C. with 5% CO2 to allow the cells to attach and grow. Media was then aspirated from the cells and replaced with 15 uL 2:1 Hanks Balanced Salt Solution (HBSS)/10 mM Hepes:cAMP XS+Ab reagent. Five microliters (5 uL) of previously generated compound sample stocks at 4× final concentration in assay buffer containing 4× EC80 forskolin were then added to the cells and allowed to incubate at 37° C. for 30 minutes.
After incubation the assay signal was generated using a technology termed enzyme fragment complementation (EFC). In EFC the enzyme B-galactosidase is split into two complementary portions (EA and ED). The fragment ED is fused to cAMP and in the assay format competes with endogenous cAMP for binding to a cAMP specific antibody. Activated B-Gal is formed when exogenous EA fragment binds to free ED-cAMP (not bound to cAMP specific antibody). Activated enzyme levels are detected through conversion of B-gal chemiluminescent substrate which generates a detectable luminescence signal and read on standard microtiter plate.
The methodology for detection of cAMP using EFC requires incubation with 20 uL of cAMP XS+ED/CL lysis cocktail for one hour followed by incubation with 20 uL cAMP XS+EA reagent for three hours at room temperature. Microplates were read following signal generation with a PerkinElmer Envision instrument utilizing chemiluminescent signal detection.
Compound activity was analyzed using CBIS data analysis suite (ChemInnovation, CA). Percentage activity was calculated using the following formula: % Activity=100%×(1−(mean RLU of test sample−mean RLU of Max control)/(mean RLU of vehicle control−mean RLU of Max control))

EC50 [nM]	Compound
1 to 100	CCOc1cccc(-c2nc3ncc(NS(=O)(=O)Cc4cccnc4)nc3n2-c2c(OC)cccc2OC)n1 [Example 26, N-(1-(2,6-dimethoxyphenyl)-2-(6-ethoxypyridin-2-yl)-1H-imidazo[4,5-b]pyrazin-6-yl)-1-(pyridin-3-yl)methanesulfonamide]
< 1	CCOc1cccc(-c2nc3ncc(NS(=O)(=O)N4CCCCC4)nc3n2-c2c(OC)cccc2OC)n1 [Example 75, N-(1-(2,6-dimethoxyphenyl)-2-(6-ethoxypyridin-2-yl)-1H-imidazo[4,5-b]pyrazin-6-yl)piperidine-1-sulfonamide]
1 to 100	CCOc1cccc(-c2nc3ncc(NS(C)(=O)=O)nc3n2-c2c(OC)ccnc2OC)n1 (atropisomer, axis not shown) [Example 84, N-(1-(2,4-Dimethoxypyridin-3-yl)-2-(6-ethoxypyridin-2-yl)-1H-imidazo[4,5-b]pyrazin-6-yl)methanesulfonamide]
1 to 100	CCOc1cccc(-c2nc3nnc(NS(=O)(=O)N4CCOCC4)cc3n2-c2c(OC)cccc2OC)n1 [Example 121, N-(7-(2,6-Dimethoxyphenyl)-8-(6-ethoxypyridin-2-yl)-7H-imidazo[4,5-c]pyridazinyl)morpholine-4-sulfonamide]
< 1	CCOc1cccc(-c2nc3nc(NS(=O)(=O)Cc4ncc(C)cn4)cnc3n2-c2c(OC)cccc2OC)n1 [Example 91, N-(1-(2,6-Dimethoxyphenyl)-2-(6-ethoxypyridin-2-yl)-1H-imidazo[4,5-b]pyrazin-5-yl)-1-(5-methylpyrimidin-2-yl)methanesulfonamide]

Second part, the compound before the results:

Compound	EC50 [nM]
CCOc1cccc(-c2nc3nc(Cl)c(NS(=O)(=O)c4ccc(CF)cc4)nc3n2-c2c(OC)cccc2OC)n1 [Example 103, N-(5-Chloro-1-(2,6-dimethoxyphenyl)-2-(6-ethoxypyridin-2-yl)-1H-imidazo[4,5-b]pyrazin-6-yl)-4-(fluoromethyl)benzenesulfonamide]	< 1
CCOc1cccc(-c2nc3ncc(NS(=O)(=O)CC4(O)CC4)nc3n2-c2c(OC)cccc2OC)n1 [Example 61, N-(1-(2,6-dimethoxyphenyl)-2-(6-ethoxypyridin-2-yl)-1H-imidazo[4,5-b]pyrazin-6-yl)-1-(1-hydroxycyclopropyl)methanesulfonamide]	1 to 100
CCOc1cccc(-c2nc3nc(NS(C)(=O)=O)cnc3n2-c2c(OC)cccc2OC)n1 [Example 43, N-(1-(2,6-dimethoxyphenyl)-2-(6-ethoxypyridin-2-yl)-1H-imidazo[4,5-b]pyrazin-5-yl)methanesulfonamide]	1 to 100
CCOc1cccc(-c2nc3ncc(NS(=O)(=O)Cc4ccccc4)nc3n2-c2c(OC)cccc2OC)n1 [Example 3, N-(1-(2,6-dimethoxyphenyl)-2-(6-ethoxypyridin-2-yl)-1H-imidazo[4,5-b]pyrazin-6-yl)-1-phenylmethanesulfonamide]	1 to 100
CCOc1cccc(-c2nc3nnc(NS(=O)(=O)Cc4ccc(F)cn4)cc3n2-c2c(OC)cccc2OC)n1 [Example 125, N-(7-(2,6-Dimethoxyphenyl)-8-(6-ethoxypyridin-2-yl)-7H-imidazo[4,5-c]pyridazinyl)-1-(5-fluoropyridin-2-yl)methanesulfonamide]	< 1
CCOc1cccc(-c2nc3nnc(NS(=O)(=O)Cc4ccc(Cl)cn4)cc3n2-c2c(OC)cccc2OC)n1 [Example 123, 1-(5-Chloropyridin-2-yl)-N-(7-(2,6-dimethoxyphenyl)-8-(6-ethoxypyridin-2-yl)-7H-imidazo[4,5-c]pyridazinyl)methanesulfonamide]	< 1
CCOc1cccc(-c2nc3ncc(NS(=O)(=O)C4CCOCC4)nc3n2-c2c(OC)cccc2OC)n1 [Example 36, N-(1-(2,6-dimethoxyphenyl)-2-(6-ethoxypyridin-2-yl)-1H-imidazo[4,5-b]pyrazin-6-yl)tetrahydro-2H-pyran-4-sulfonamide]	1 to 100
